Data on nine compounds can be found in PMC10653776, “New dammarane-type triterpenoids from hydrolyzate of total Gynostemma pentaphyllum saponins with protein tyrosine phosphatase 1B inhibitory activity” (Journal of Enzyme Inhibition and Medicinal Chemistry, 2023).

The target in assay [1] is T1, PTP1B (Homo sapiens, UniProt P18031).
T1 sequence (P18031 1-435): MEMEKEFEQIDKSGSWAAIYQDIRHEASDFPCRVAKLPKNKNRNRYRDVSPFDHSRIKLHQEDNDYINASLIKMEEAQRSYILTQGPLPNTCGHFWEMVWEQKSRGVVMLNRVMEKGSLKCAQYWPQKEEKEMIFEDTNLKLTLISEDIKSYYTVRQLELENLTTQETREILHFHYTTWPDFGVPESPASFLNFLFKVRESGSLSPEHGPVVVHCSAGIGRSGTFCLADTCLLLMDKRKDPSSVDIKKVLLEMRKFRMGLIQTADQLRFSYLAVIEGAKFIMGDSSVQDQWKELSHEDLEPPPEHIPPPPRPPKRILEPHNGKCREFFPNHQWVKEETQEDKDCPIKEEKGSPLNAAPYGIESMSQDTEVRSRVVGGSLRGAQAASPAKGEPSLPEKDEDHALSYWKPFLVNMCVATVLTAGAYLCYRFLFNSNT
The assay can be described thus: PTP1B inhibition assay (pNPP colorimetric method). It counts as biochemical. Particulars: for IC50: pNPP substrate, 37 °C 30 min, means ± SD of three replications; for PTP1B inhibitory activity (in words): pNPP method, compared with positive control NaVO4. Also on record: purchased Abcam (Shanghai) Trading Co., Ltd. ab51277. The procedure: In the separation process, the column chromatography as performed by silica-gel (100–200 and 300–400 mesh, Qingdao Marine Chemical Co., Qingdao, China), and Sephadex LH-20 (GE Healthcare, Marlborough, MA). The TLC detection was carried by heating a silica gel plate (Qingdao Marine Chemical Co., Qingdao, China) spayed with 10% H2SO4 in ethanol. The 1D and 2D NMR spectra were recorded on a Varian INOVA AS 400 instrument (Agilent, Santa Clara, USA) with TMS as the internal standard. The chemical shift was shown in ppm while coupling constant J in Hz. Deuterated solvent ([…]) was purchased from Sigma Aldrich for NMR analysis. HR-ESI-MS data were collected by a UPLC–Q/TOF-MS system including a 1290 Infinity II UPLC system (Agilent, USA) and an Agilent 6545 Q/TOF-MS system (Agilent, MA, USA). Optical rotations were measured by a JASCO P-1020 polarimeter (Kyoto, Japan). The single crystal X-ray diffraction data were obtained by a SuperNova, Dual, Cu at zero, AtlasS2 diffractometer (Rigaku, Japan). Besides, other analytical grade chemical solvent was obtained from Jinhuada Chemical Co., ltd. Guangzhou, P.R. China. Recombinant human PTP1B protein (ab51277) was purchased from Abcam (Shanghai) Trading Co., Ltd. All chemical reagents used in the enzymatic assays were produced by Laibo Chemicals Industries, Ltd.
The enzymatic assays of protein tyrosine phosphatase 1B (PTP1B) were referred. The PTP1B inhibitory activities of test compounds were examined in 96-well plates using the colorimetric method. […] The reaction system was 100 μL: MOPS (25 mM, pH = 7.0), DTT (2 mM), EDTA (1 mM, pH = 7.0), NaCl (0.1 M), PTP 1B (25 nM), and disodium-4-nitrophenyl phosphate (pNPP, 2 mM), and the enzyme-catalysed reaction was terminated by the addition of 1.0 M NaOH after incubation at 37 °C for 30 min. The inhibition efficiency of the compounds on the enzymatic activity of PTP1B was assayed by detecting the amount of the hydrolysed product, p-nitrophenol (p-NP) at 405 nm using a microplate reader. The PTP1B inhibition activity was expressed as inhibition (%) and was calculated as Equation (1): (1) Inhibition (%)=(1−ΔAsample/ΔAcontrol)×100%

The target of assay [2] is T1, PTP1B. The assay can be described thus: PTP1B inhibition kinetic assay (Lineweaver-Burk and Dixon plots). It is filed as biochemical. As to conditions: for Ki: Dixon plot method, means ± SD of three replications; for type of inhibition against PTP1B: Lineweaver-Burk double reciprocal plot. The protocol: The kinetic behaviour of the active compounds against PTP1B and the corresponding inhibition constants (Ki values) were investigated using Lineweaver-Burk double reciprocal plots and Dixon plots. Different concentrations of p-NPP substrates (1, 2, 5 and 10 mM) were subjected to enzymatic reactions with various concentrations of active compounds (0, 0.5, 1.0 and 5.0 μM for 18) and 100 nM PTP1B in 96-well plates. The absorbance of the reaction mixture was recorded every 3 min by a plate reader. The enzymatic velocity of the enzyme reaction was calculated based on the time-Δabs plot. All assays were performed in triplicate.

The term IC50 denotes the midpoint of a concentration-inhibition curve. Read a low IC50 as inhibition by little substance. `CC1(C)CCC=C(C(=O)C2CCC3(C)C2CCC2C4=C(CCC23C)C(C)(C)C2CCC4O2)O1` (stereo not shown) [Compound 1, Gypensapogenin I] returned an IC50 against PTP1B [1] of 20.3 ± 2.49 µM.
With `CC(C)=C1CC([C@H]2CC[C@]3(C)[C@@H]2CCC2[C@@]4(C)CC[C@H](O)C(C)(C)C4CC[C@]23C)=CC1=O` (stereo partly shown) [Compound 2, Gypensapogenin II], on PTP1B [1], the “PTP1B inhibitory activity (in words)” value is given as “more inhibitory activity against PTP1B than the positive control” and it took 10.5 ± 1.07 µM to reach half-maximal inhibition (IC50).
Usually Ki stands for a dissociation constant, usually derived from enzyme kinetics or from competition with a known ligand. Low values mean higher affinity, high ones lower affinity. `CC(C)=CCC[C@@](O)(C(=O)O)[C@H]1CC[C@]2(C)[C@@H]1CCC1[C@@]3(C)CC[C@H](O)C(C)(C)C3CC[C@]12C` (stereo partly shown) [Compound 3, Gypensapogenin III]: at PTP1B [2], the affinity, expressed as Ki, was 1160 ± 470 nM and the “type of inhibition against PTP1B” value is listed as “competitive inhibitors”. Further, on PTP1B [1], the “PTP1B inhibitory activity (in words)” value is recorded as “more inhibitory activity against PTP1B than the positive control” and half-maximal inhibition (IC50) was put at 2.34 ± 0.24 µM.
As for `CC(C)(O)CC(=O)CC(C(=O)O)[C@H]1CC[C@]2(C)[C@@H]1CCC1[C@@]3(C)CC[C@H](O)C(C)(C)C3CC[C@]12C` (stereo partly shown) [Compound 4, Gypensapogenin IV], at PTP1B [2], the Ki was 2440 ± 90 nM and the “type of inhibition against PTP1B” value was “competitive inhibitors”. Also, on PTP1B [1], the “PTP1B inhibitory activity (in words)” value was “more inhibitory activity against PTP1B than the positive control” and half-maximal inhibition (IC50) was put at 4.26 ± 0.42 µM.
The compound `CC(C)=CC(=O)CC(C(=O)O)[C@H]1CC[C@]2(C)[C@@H]1CCC1[C@@]3(C)CC[C@H](O)C(C)(C)C3CC[C@]12C` (stereo partly shown) [Compound 5, Gypensapogenin V] displayed an IC50 on PTP1B [1] of 33.9 ± 0.83 µM.
`CC(C)=C1CC=C([C@H]2CC[C@]3(C)[C@@H]2CC[C@@H]2C4=C(CC[C@]23C)C(C)(C)[C@@H]2CC[C@H]4O2)C1=O` [Compound 6, Gypensapogenin A] showed an IC50 against PTP1B [1] of 19.6 ± 1.48 µM.
Regarding `CC(C)=C1CC([C@H]2CC[C@]3(C)[C@@H]2CC[C@@H]2C4=C(CC[C@]23C)C(C)(C)[C@@H]2CC[C@H]4O2)=CC1=O` [Compound 7, Gypensapogenin B], 29.4 ± 2.48 µM corresponded to half-maximal inhibition on PTP1B [1] (IC50).
Turning to `CC(C)=C1CC=C([C@H]2CC[C@]3(C)[C@@H]2CC[C@@H]2[C@@]4(C)CC[C@H](O)C(C)(C)[C@@H]4CC[C@]23C)C1=O` [Compound 8, Gypensapogenin C], inhibition at PTP1B [1] was half-maximal at 24.6 ± 2.28 µM (IC50).
Turning to `CC(C)=C[C@H]1C=C([C@H]2CC[C@]3(C)[C@@H]2CC[C@@H]2[C@@]4(C)CC[C@H](O)C(C)(C)[C@@H]4CC[C@]23C)C(=O)O1` [Compound 9, Gypensapogenin D], at PTP1B [2], the affinity, expressed as Ki, was 5580 ± 700 nM and the “type of inhibition against PTP1B” value is “competitive inhibitors”. Further, on PTP1B [1], the “PTP1B inhibitory activity (in words)” value was “more inhibitory activity against PTP1B than the positive control” and the IC50 is 7.77 ± 0.85 µM.
